Where a name gives a salt, the structure may show the parent alone.

The target of this experiment is T1, human Npt2a (Homo sapiens, UniProt Q06495).
T1 construct: expressed in transfected cells
T1 sequence (Q06495 1-639): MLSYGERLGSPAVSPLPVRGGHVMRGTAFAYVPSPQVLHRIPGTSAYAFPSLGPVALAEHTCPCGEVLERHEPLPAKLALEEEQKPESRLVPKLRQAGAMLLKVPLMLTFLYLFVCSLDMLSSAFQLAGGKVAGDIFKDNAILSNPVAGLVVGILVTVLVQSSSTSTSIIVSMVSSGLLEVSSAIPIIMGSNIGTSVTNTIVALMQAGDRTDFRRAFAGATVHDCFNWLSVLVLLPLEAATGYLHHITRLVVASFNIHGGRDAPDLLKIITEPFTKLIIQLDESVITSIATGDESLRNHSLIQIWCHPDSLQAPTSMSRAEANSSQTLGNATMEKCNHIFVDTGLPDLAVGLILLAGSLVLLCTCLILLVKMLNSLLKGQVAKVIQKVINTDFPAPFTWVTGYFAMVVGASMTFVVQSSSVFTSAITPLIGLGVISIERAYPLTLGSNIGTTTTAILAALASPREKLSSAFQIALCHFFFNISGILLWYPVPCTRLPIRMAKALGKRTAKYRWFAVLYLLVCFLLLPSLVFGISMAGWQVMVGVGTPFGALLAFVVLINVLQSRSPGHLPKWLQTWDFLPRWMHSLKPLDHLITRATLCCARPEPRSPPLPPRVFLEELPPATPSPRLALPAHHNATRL
The experiment is described as follows: Npt2a activity cell based assay, membrane potential dye, CHO T-REx hNpt2a cells. To be noted: doxycycline-induced, depolarization by sodium phosphate influx, average or median values if tested more than once. The method in brief:
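Cells were doxycycline-induced CHO T-REx hNpt2a, dye-loaded and pretreated 5 min at RT with 1 nM–50 μM compound in Na-free pH 7.4 buffer. IC50 was fit to the post/pre-trigger fluorescence ratio.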
The IC50 is the concentration at which inhibition is half-maximal. A high value points to weaker potency. In turn, `CCCN1Cc2cnn(-c3cc(Nc4c(C)c(-c5ccc(F)cc5)nn4CC4CC4)ncn3)c2C1` [Example 522, N-[1-(cyclopropylmethyl)-3-(4-fluorophenyl)-4-methyl-1H-pyrazol-5-yl]-6-(5-propyl-5,6-dihydropyrrolo[3,4-c]pyrazol-1(4H)-yl)pyrimidin-4-amine] showed an IC50 of 0.91 µM.

`Cc1nn(-c2cc(Nc3c(C)c(-c4ccc(F)cc4)nn3CC3CC3)ncn2)c(C)c1C(O)C(F)(F)F` (racemic) [Example 374, (±)-1-[1-(6-{[1-(cyclopropylmethyl)-3-(4-fluorophenyl)-4-methyl-1H-pyrazol-5-yl]amino}pyrimidin-4-yl)-3,5-dimethyl-1H-pyrazol-4-yl]-2,2,2-trifluoroethanol] gave an IC50 of 0.063 µM.

The compound `Cc1cc(C)n(-c2cc(Nc3c(C4CC4)c(-c4ccc(F)cc4)nn3C)ncn2)n1` [Example 43, N-[4-cyclopropyl-3-(4-fluorophenyl)-1-methyl-1H-pyrazol-5-yl]-6-(3,5-dimethyl-1H-pyrazol-1-yl)pyrimidin-4-amine] came in with an IC50 of 0.144 µM.

Compound `CCc1c(-c2ccc(F)cc2)nn(CC(F)F)c1Nc1cc(-n2nc(C)c(Cl)c2C)ncn1` [Example 163, 6-(4-chloro-3,5-dimethyl-1H-pyrazol-1-yl)-N-[1-(2,2-difluoroethyl)-4-ethyl-3-(4-fluorophenyl)-1H-pyrazol-5-yl]pyrimidin-4-amine] had an IC50 of 0.071 µM. This IC50 lies about 2-fold lower than the previous one.

As for `Cc1nn(-c2cc(Nc3nn(CC4CC4)c(-c4ccc(F)cc4)c3Cl)ncn2)c(C)c1C(C)(C)O` [Example 160, 2-[1-(6-{[4-chloro-1-(cyclopropylmethyl)-5-(4-fluorophenyl)-1H-pyrazol-3-yl]amino}pyrimidin-4-yl)-3,5-dimethyl-1H-pyrazol-4-yl]propan-2-ol], the IC50 was 1.11 µM.

Take `Cc1nn(-c2cc(Nc3c(C)c(-c4ccc(C(F)F)nc4)nn3C)ncn2)c(C)c1F` [Example 485, N-{3-[6-(difluoromethyl)pyridin-3-yl]-1,4-dimethyl-1H-pyrazol-5-yl}-6-(4-fluoro-3,5-dimethyl-1H-pyrazol-1-yl)pyrimidin-4-amine]: the IC50 was 1.35 µM.

Take `COc1c(-c2ccc(C#N)cc2)nn(C)c1Nc1cc(-n2nc(C)c(C(O)C(F)(F)F)c2C)ncn1` (racemic) [Example 425, (±)-4-{5-[(6-{3,5-dimethyl-4-[2,2,2-trifluoro-1-hydroxyethyl]-1H-pyrazol-1-yl}pyrimidin-4-yl)amino]-4-methoxy-1-methyl-1H-pyrazol-3-yl}benzonitrile]: half-maximal inhibition (IC50) required 0.415 µM. Compared with the last compound, the IC50 is about 3.3-fold lower.

Compound `CCc1c(-c2ccc(F)cc2)nn(C)c1Nc1cc(-n2nc(C)c(Cl)c2C)ncn1` [Example 97, 6-(4-chloro-3,5-dimethyl-1H-pyrazol-1-yl)-N-[4-ethyl-3-(4-fluorophenyl)-1-methyl-1H-pyrazol-5-yl]pyrimidin-4-amine] displayed an IC50 of 0.075 µM. This IC50 is about 5.5-fold lower than that of the compound before.

`Cc1nn(-c2cc(Nc3c(C)c(-c4ccc(F)cc4)nn3CC3CC3)ncn2)c(C)c1C(C)O` (single isomer, unassigned) [Example 329, 1-[1-(6-{[1-(cyclopropylmethyl)-3-(4-fluorophenyl)-4-methyl-1H-pyrazol-5-yl]amino}pyrimidin-4-yl)-3,5-dimethyl-1H-pyrazol-4-yl]ethanol] returned an IC50 of 0.067 µM.

Turning to `CCNc1c(C)nn(-c2cc(Nc3c(C)c(-c4ccc(F)cc4)nn3CC3CC3)ncn2)c1C` [Example 501, N-[1-(cyclopropylmethyl)-3-(4-fluorophenyl)-4-methyl-1H-pyrazol-5-yl]-6-[4-(ethylamino)-3,5-dimethyl-1H-pyrazol-1-yl]pyrimidin-4-amine trifluoroacetate], the IC50 came to 0.005 µM.

For `CC(=O)c1c(Nc2cc(-n3nc(C)cc3C)ncn2)nn(C)c1-c1ccc(F)cc1` [Example 82, 1-[3-{[6-(3,5-dimethyl-1H-pyrazol-1-yl)pyrimidin-4-yl]amino}-5-(4-fluorophenyl)-1-methyl-1H-pyrazol-4-yl]ethanone], the IC50 was found to be 1.5 µM. This IC50 lies about 300-fold higher than the previous one.

In turn, `CCOC(=O)c1c(Cl)c(C)nn1-c1cc(Nc2nn(C)c(-c3ccc(F)cc3)c2CC)ncn1` [Example 178, ethyl 4-chloro-1-(6-{[4-ethyl-5-(4-fluorophenyl)-1-methyl-1H-pyrazol-3-yl]amino}pyrimidin-4-yl)-3-methyl-1H-pyrazole-5-carboxylate] displayed an IC50 of 0.026 µM.

For `CCOC(=O)c1c(C)nn(-c2cc(Nc3[nH]nc(-c4ccc(F)cc4)c3C3CC3)ncn2)c1C` [Example 15, ethyl 1-(6-{[4-cyclopropyl-3-(4-fluorophenyl)-1H-pyrazol-5-yl]amino}pyrimidin-4-yl)-3,5-dimethyl-1H-pyrazole-4-carboxylate], inhibition was half-maximal at 0.072 µM (IC50).

Regarding `COc1c(Nc2cc(-n3nc(C)c4ccncc43)ncn2)n[nH]c1-c1ccc(C#N)cc1` [Example 214, 4-(4-methoxy-3-{[6-(3-methyl-1H-pyrazolo[3,4-c]pyridin-1-yl)pyrimidin-4-yl]amino}-1H-pyrazol-5-yl)benzonitrile], the IC50 is 0.086 µM. The IC50 values of the last two compounds are within 1.5-fold of each other.

In turn, `Cc1nn(-c2cc(Nc3c(C)c(-c4ccc(F)cc4)nn3CC3CC3)ncn2)c(C)c1C(C)(C)O` [Example 159, 2-[1-(6-{[1-(cyclopropylmethyl)-3-(4-fluorophenyl)-4-methyl-1H-pyrazol-5-yl]amino}pyrimidin-4-yl)-3,5-dimethyl-1H-pyrazol-4-yl]propan-2-ol] displayed an IC50 of 0.008 µM.

In the case of `Cc1nn(-c2cc(Nc3c(C)c(-c4ccc(F)cc4)nn3CC3CC3)ncn2)c(C)c1S(C)(=O)=O` [Example 423, N-[1-(cyclopropylmethyl)-3-(4-fluorophenyl)-4-methyl-1H-pyrazol-5-yl]-6-[3,5-dimethyl-4-(methylsulfonyl)-1H-pyrazol-1-yl]pyrimidin-4-amine], the IC50 is 0.055 µM.

On to `Cc1nn(-c2cc(Nc3c(C)c(-c4ccc(F)cc4)nn3CC3CC3)ncn2)c(C)c1CC1(O)CC1` [Example 287, 1-{[1-(6-{[1-(cyclopropylmethyl)-3-(4-fluorophenyl)-4-methyl-1H-pyrazol-5-yl]amino}pyrimidin-4-yl)-3,5-dimethyl-1H-pyrazol-4-yl]methyl}cyclopropanol], for which the IC50 is 0.005 µM.

In turn, `Cc1cc(C)n(-c2cc(Nc3c(C)nn(-c4ccc(F)cc4)c3C)ncn2)n1` [Example 78, 6-(3,5-dimethyl-1H-pyrazol-1-yl)-N-[1-(4-fluorophenyl)-3,5-dimethyl-1H-pyrazol-4-yl]pyrimidin-4-amine] gave an IC50 of 0.247 µM.

Regarding `COCCn1nc(-c2ccc(C(F)F)cc2)c(C)c1Nc1cc(-n2nc(C)cc2C)ncn1` [Example 536, N-{3-[4-(difluoromethyl)phenyl]-1-(2-methoxyethyl)-4-methyl-1H-pyrazol-5-yl}-6-(3,5-dimethyl-1H-pyrazol-1-yl)pyrimidin-4-amine], the IC50 was found to be 0.017 µM.

In turn, `CCc1c(Nc2cc(-n3nc(C)c4cnccc43)ncn2)nn(C)c1-c1ccc(F)cc1` [Example 224, N-[4-ethyl-5-(4-fluorophenyl)-1-methyl-1H-pyrazol-3-yl]-6-(3-methyl-1H-pyrazolo[4,3-c]pyridin-1-yl)pyrimidin-4-amine] gave an IC50 of 0.047 µM.

On to `COc1c(C)nn(-c2cc(Nc3c(C)c(-c4ccc(C#N)cc4)nn3C)ncn2)c1C` [Example 436, 4-(5-{[6-(4-methoxy-3,5-dimethyl-1H-pyrazol-1-yl)pyrimidin-4-yl]amino}-1,4-dimethyl-1H-pyrazol-3-yl)benzonitrile], for which the IC50 was determined as 0.01 µM.

With `COc1ccc(-c2nn(CC3CC3)c(Nc3cc(-n4nc(C)c(C(F)(F)F)c4C)ncn3)c2C)cc1` [Example 486, N-[1-(cyclopropylmethyl)-3-(4-methoxyphenyl)-4-methyl-1H-pyrazol-5-yl]-6-[3,5-dimethyl-4-(trifluoromethyl)-1H-pyrazol-1-yl]pyrimidin-4-amine], the midpoint of inhibition, the IC50, lay at 0.059 µM.

In turn, `Cc1nn(-c2cc(Nc3c(C)c(-c4ccc(C#N)cc4)nn3CC3CC3)ncn2)c(C)c1F` [Example 268, 4-[1-(cyclopropylmethyl)-5-{[6-(4-fluoro-3,5-dimethyl-1H-pyrazol-1-yl)pyrimidin-4-yl]amino}-4-methyl-1H-pyrazol-3-yl]benzonitrile] had an IC50 of 0.008 µM.

As for `Cc1cc(C)n(-c2cc(Nc3c(C)c(-c4ccc(C(F)F)cc4)nn3C)ncn2)n1` [Example 407, N-{3-[4-(difluoromethyl)phenyl]-1,4-dimethyl-1H-pyrazol-5-yl}-6-(3,5-dimethyl-1H-pyrazol-1-yl)pyrimidin-4-amine], it took 0.029 µM to reach half-maximal inhibition (IC50).

Take `Cc1nn(-c2cc(Nc3c(C)c(-c4ccc(F)cc4)nn3CC3CC3)ncn2)c2c1C(O)(C(F)(F)F)CC2` (racemic) [Example 386, (±)-1-(6-{[1-(cyclopropylmethyl)-3-(4-fluorophenyl)-4-methyl-1H-pyrazol-5-yl]amino}pyrimidin-4-yl)-3-methyl-4-(trifluoromethyl)-1,4,5,6-tetrahydrocyclopenta[c]pyrazol-4-ol]: the half-inhibitory concentration (IC50) turned out to be 0.012 µM.

On to `CCc1c(-c2ccc(F)cc2)nn(C2CC2)c1Nc1cc(-n2nc(C)cc2C)ncn1` [Example 119, N-[1-cyclopropyl-4-ethyl-3-(4-fluorophenyl)-1H-pyrazol-5-yl]-6-(3,5-dimethyl-1H-pyrazol-1-yl)pyrimidin-4-amine], for which the IC50 was determined as 0.87 µM.

The values are drawn from patent publication US11208400B2, “Substituted 6-(1H-pyrazol-1-yl)pyrimidin-4-amine derivatives and uses thereof” (Bayer Aktiengesellschaft, priority 2016, dated 2021).
